The values that follow come from patent publication US5332811A, “Etopside analogs” (priority 1991, dated 1994).

Like-named read-outs stand apart in the source and are kept apart here.

For data set [1], the system named is Human DNA topoisomerase II. The following applies: at higher concentrations; Thurston et al. 1986; cited from earlier work.
The test system of a further data set is KB cells. Nature of the data set: Cytotoxicity: 50% reduction in cell number of KB cells after three day incubation. It is filed as cell-based. Particulars: Homo sapiens, 72 h, KB cells, three day incubation, read-out: Cytotoxicity ID50 KB. The method, then: (§1) The compounds of the present invention were tested for their degree of inhibitory activity on human type II DNA topoisomerase, their effect on the formation of protein-linked DNA breakage, and their cytotoxicity. The inhibitory activity for compounds of the present invention correlated with the ability of the compounds to cause DNA strand breakage. […] For a description of the assays used with respect to the compounds listed in Tables 1 to 5 see Thurston, L.S., Irie, H., Tani, S., Han, F. S., Liu, Z. C., Cheng, Y.C., and Lee, K. H., Antitumor Agents 78. Inhibition of Human DNA Topoisomerase II by Podophyllotoxin and Peltatin Analogues, J. Med. Chem. 29, 1547 (1986), and the references cited therein, herein incorporated by reference.
in cell number after three day incubation.

In data set [2] the test system is covalent topoisomerase II-DNA complexes. Briefly: K-SDS precipitation assay for protein-DNA complexes in KB ATCC cells (cellular protein-DNA complex formation). Type of data set: cell-based. Particulars: compared with etoposide. The method, then:
as §1
(§2) Drugs were dissolved in Me2 SO at a concentration of 20 mM as the stock solution and diluted before use with water to the desired concentration of each drug.
The intracellular formation of covalent topoisomerase II-DNA complexes was quantitated using the potassium SDS precipitation assay, a procedure adapted from the method described in Rowe, T. C., Chen, G. L., Hsiang, Y. H., and Liu, L., Cancer Res., 46, 2021 (1986) (hereinafter Rowe et al.), which is herein specifically incorporated by reference. KB ATCC cells were prelabeled with 0.05 mCi/ml ^14 C-thymidine (specific activity 50.5 mCi/mmol) for 18 hr. A final concentration of 5×10^5 cells/sample were treated with 10 μM of the drugs at 37° C. for 1 hr and proceeded according to the procedure described by Rowe et al. to detect the protein linked DNA levels.

The target of data set [3] is Human DNA topoisomerase II. Nature of the data set: DNA topoisomerase II assay (P4 unknotting reaction). It is filed as biochemical. Particulars: for IC50: read-out: Inhibition of DNA Topoisomerase II Activity ID50; for inhibition of DNA topoisomerase activity relative to etoposide: compared with etoposide. The method, then: as §1, with “cytotoxicity.” for “cytotoxicity. The inhibitory activity for compounds of the present invention correlated with the ability of the compounds to cause DNA strand breakage.”
Human DNA topoisomerase II was isolated from peripheral blast cells of a patient with acute leukemia. The isolation procedure is described in Thurston, L., Imakura, Y., Haruna, M., Li, Z. C., Liu, S. Y., and Lee, K. H., J. Med. Chem., 31, […] (1988) and is a partial combination of the procedure described in Goto, T., Laiapia, P. and Wang, J., J. Biol. Chem., 259, 10422 (1984) and Halligan, B., Edwards, K., and Liu, L., J. Biol. Chem., 260, 2475 (1985) which are herein specifically incorporated by reference.
as §2
The P4 unknotting reaction was a modification of the procedure described by Hseih, T., J. Biol. Chem., 258, 8413 (1985), which is herein specifically incorporated by reference.
The reaction mixture (20 μL), which contained 50 mM HEPES, pH 7.0, 50 mM KCI, 100 mM NaCl, 0.1 mM EDTA, 10 mM MgCl2, 1.0 mM ATP, 50 μg/mL bovine serum albumin, 0.4 μg P4knotted DNA, and enzyme, was incubated with or without drugs.
The reaction mixture was incubated at 37° C. for 30 min and terminated by adding 5.0 μl of a stop solution (2% sodium dodecyl sulfate, 20% glycerol, 0.05% bromophenol blue). These samples were loaded onto a 1% agarose gel and electrophoresed at 55 V overnight with an electrophoresis buffer that contained 90 mM Tris-boric acid, pH 8.3, and 2.5 mM EDTA. At completion, the gel was stained in 0.5 μg/mL of ethidium bromide. Then a photograph was taken of the DNA bands visualized with fluorescence induced by a long-wavelength UV lamp. […]

For data set [4] the following is noted: clinical level; background; cited from earlier work.
For data set [5] the following is noted: clinical level; background; cited from earlier work. This is another data set of the same source.
Data set [6] concerns several human neoplasms, including small cell carcinomas of the lung, testicular carcinomas, Hodgkin's disease, leukemia, lymphoma and Kaposi's Sarcoma. Particulars: background; cited from earlier work.
The mark [7] stands for this setting: Table 1, based on degree of inhibition at 25, 50, and 100 μM.

Turning to `CCOC1c2cc3c(cc2C(c2cc(OC)c(O)c(OC)c2)C2C(=O)OCC12)OCO3` (stereo not drawn) [4'-demethyl-epipodophyllotoxin ethyl ether], the “inhibitory activity of DNA topoisomerase II” value in data set [1] is on record as “preserves the inhibitory activity of DNA topoisomerase II intact at higher concentrations”.
Take `COc1cc(C2c3cc4c(cc3C(NCc3cccc(F)c3)C3COC(=O)C23)OCO4)cc(OC)c1O` (stereo not drawn) [Example 8, 4-O-Dimethyl-4β-(3"-fluorobenzylamino)-4-desoxypodophyllotoxin]: the IC50 amounted to 3 µM in the data set on KB cells (Table 1) and 25 µM in data set [3] (setting [7]). Further, in data set [2], the “inhibition of cellular protein-DNA complex formation relative to etoposide” value is “over twice”. In addition, the “inhibition of DNA topoisomerase activity relative to etoposide” value in data set [3] was “over twice”.
Take `COc1cc(C2c3cc4c(cc3C(NCc3cccc(C#N)c3)C3COC(=O)C23)OCO4)cc(OC)c1O` (stereo not drawn) [Example 10, 4'-O-Demethyl-4β-(3"-cyanobenzylamino)-4-desoxypodophyllotoxin]: the figures for the IC50 (with KB cells (Table 1); in data set [3] (setting [7])) were less than 0.4 µM and 25 µM, respectively. Besides, the “inhibition of cellular protein-DNA complex formation relative to etoposide” value in data set [2] is listed as “over twice”. The “inhibition of DNA topoisomerase activity relative to etoposide” value in data set [3] is “over twice”.
`COc1cc(C2c3cc4c(cc3C(NCc3ccc(C#N)cc3)C3COC(=O)C23)OCO4)cc(OC)c1O` (stereo not drawn) [Example 11, 4'-O-Demethyl-4β-(4"-cyanobenzylamino)-4-desoxypodophyllotoxin]: the IC50 in the data set with KB cells (Table 1) is less than 0.4 µM; in data set [3] (setting [7]), 25 µM. Further, the “inhibition of cellular protein-DNA complex formation relative to etoposide” value in data set [2] is given as “over twice”. Further, the “inhibition of DNA topoisomerase activity relative to etoposide” value in data set [3] was “over twice”.
Turning to `COc1cc(C2c3cc4c(cc3C(Nc3ccc([N+](=O)[O-])cc3)C3COC(=O)C23)OCO4)cc(O)c1O` (stereo not drawn) [Example 23, 3',4'-O-Didemethyl-4β-(4"-nitroanilino)-4-desoxypodophyllotoxin], the IC50 with KB cells (Table 2) amounted to 1.3 µM; in data set [3] (Table 2, based on degree of inhibition at 10, 25, 50 and 100 μM) it was 10 µM. Also, the “inhibition of cellular protein-DNA complex formation relative to etoposide” value in data set [2] is “over twice”. In addition, the “inhibition of DNA topoisomerase activity relative to etoposide” value in data set [3] is “over twice”.
As for `COc1cc([C@@H]2c3cc4c(cc3[C@@H](O[C@@H]3O[C@@H]5CO[C@@H](C)O[C@H]5[C@H](O)[C@H]3O)[C@H]3COC(=O)[C@H]23)OCO4)cc(OC)c1O` [etoposide], the oral bioavailability result in data set [4] is “poor oral bioavailability”. Besides, in data set [5], the myelosuppression entry is “myelosuppression”. Besides, the “therapeutic activity in several human neoplasms” value in data set [6] is “exhibits therapeutic activity in several human neoplasms”. For the same molecule, in the data set with KB cells (Table 1), the IC50 amounted to 0.2 µM.
